This is an account of results in patent publication US20230295200A1 (REGENTS OF THE UNIVERSITY OF MICHIGAN, priority 2022, published 2023).

The target in this experiment is T1, STAT6 protein (Homo sapiens, UniProt P42226).
T1 sequence (P42226 1-847): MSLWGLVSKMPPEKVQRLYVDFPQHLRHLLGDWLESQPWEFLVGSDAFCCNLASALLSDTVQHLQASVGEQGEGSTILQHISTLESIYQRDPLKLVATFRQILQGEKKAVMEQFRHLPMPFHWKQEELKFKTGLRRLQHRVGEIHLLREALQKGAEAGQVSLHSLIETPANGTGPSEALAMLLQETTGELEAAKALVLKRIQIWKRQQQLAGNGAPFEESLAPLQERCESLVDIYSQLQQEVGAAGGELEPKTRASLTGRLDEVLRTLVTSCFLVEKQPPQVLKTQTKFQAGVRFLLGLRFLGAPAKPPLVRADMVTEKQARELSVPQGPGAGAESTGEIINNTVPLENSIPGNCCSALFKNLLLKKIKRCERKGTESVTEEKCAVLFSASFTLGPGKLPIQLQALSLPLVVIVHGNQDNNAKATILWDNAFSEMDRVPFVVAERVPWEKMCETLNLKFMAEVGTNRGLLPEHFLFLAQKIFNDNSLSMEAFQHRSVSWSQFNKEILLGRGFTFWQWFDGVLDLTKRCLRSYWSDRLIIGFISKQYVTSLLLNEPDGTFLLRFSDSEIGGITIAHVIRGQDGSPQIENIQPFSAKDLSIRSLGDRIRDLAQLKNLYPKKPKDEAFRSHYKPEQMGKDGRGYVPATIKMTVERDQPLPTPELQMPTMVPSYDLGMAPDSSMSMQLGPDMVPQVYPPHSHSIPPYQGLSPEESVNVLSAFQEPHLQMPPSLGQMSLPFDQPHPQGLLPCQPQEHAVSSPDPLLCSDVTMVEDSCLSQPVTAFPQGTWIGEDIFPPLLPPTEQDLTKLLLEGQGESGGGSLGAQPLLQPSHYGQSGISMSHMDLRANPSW
As to the kind of experiment: Fluorescence polarization (FP) binding assay, STAT6. The settings on record: FP competition, 5 nM fluorescein-labeled tracer, 200 nM protein, PBS pH7.4; read-out: Binding STAT6. The protocol: Evaluation of the activity of the inhibitors may be accomplished by fluorescence polarization (FP) experiments. A representative general protocol is the following:
Fluorescence polarization (FP) experiments are performed in black round-bottom plates using the CLARIOstar microplate reader. To each well, fluorescein-labeled tracer and STAT5 or STAT6 protein are added in assay buffer. […] The inhibition constants are determined as the concentration of the STAT5 or STAT6 at which 50% of the ligand is bound.
Fluorescence polarization (FP) experiments were performed in 96-well, black round-bottom plates (Microfluor 2, Fisher Scientific) using the CLARIOstar microplate reader (BMG Labtech). To each well, 5 nM of fluoresceinlabeled tracer and 200 nM of STAT5 and/or STAT6 protein were added to a final volume of 100 μl in the assay buffer (PBS pH7.4+0.01% BGG+0.01% Tween-20, 2 mM DTT). The plate was mixed on a shaker for 15 m and incubated at room temperature for 1 h to reach equilibrium. […] All experimental data were analyzed using Prism 8.0 software (GraphPad Software), and the inhibition constants were determined by nonlinear curve fitting as the concentration of the STAT5 and/or STAT6 at which 50% of the ligand is bound.
For orientation: Fluorescence polarisation rises when a labelled molecule tumbles more slowly, as on binding a larger partner.
On to `CC(C)(C)[C@H](NC(=O)c1cc2cc(C(F)(F)P(=O)(O)O)ccc2s1)C(=O)N1Cc2ccccc2C[C@H]1C(=O)N1CCOC(c2ccc(F)cc2F)C1` (stereo partly drawn) [Compound 237, ((2-(((2S)-1-((3S)-3-(2-(2,4-difluorophenyl)morpholine-4-carbonyl)-3,4-dihydroisoquinolin-2(1H)-yl)-3,3-dimethyl-1-oxobutan-2-yl)carbamoyl)benzo[b]thiophen-5-yl)difluoromethyl)phosphonic acid], for which the Ki was in the range of 100 to 1000 nM.

Consider `CC(C)(C)[C@H](NC(=O)c1cc2cc(C(F)(F)P(=O)(O)O)ccc2s1)C(=O)N1Cc2ccccc2C[C@H]1C(=O)N1CCOC(c2ccc(F)c(F)c2)C1` (stereo partly drawn) [Compound 238, ((2-(((2S)-1-((3S)-3-(2-(3,4-difluorophenyl)morpholine-4-carbonyl)-3,4-dihydroisoquinolin-2(1H)-yl)-3,3-dimethyl-1-oxobutan-2-yl)carbamoyl)benzo[b]thiophen-5-yl)difluoromethyl)phosphonic acid], for which the Ki was 100 to 1000 nM.

Regarding `CC(C)(C)[C@H](NC(=O)c1cc2cc(C(F)(F)P(=O)(O)O)ccc2s1)C(=O)N1Cc2ccccc2C[C@H]1C(=O)N1CCOC(c2ccc(F)c(Cl)c2)C1` (stereo partly drawn) [Compound 239, ((2-(((2S)-1-((3S)-3-(2-(3-chloro-4-fluorophenyl)morpholine-4-carbonyl)-3,4-dihydroisoquinolin-2(1H)-yl)-3,3-dimethyl-1-oxobutan-2-yl)carbamoyl)benzo[b]thiophen-5-yl)difluoromethyl)phosphonic acid], the Ki fell in the range of 1000 to 10000 nM.

As for `CC(C)(C)[C@H](NC(=O)c1cc2cc(C(F)(F)P(=O)(O)O)ccc2s1)C(=O)N1Cc2ccccc2C[C@H]1C(=O)N1CCOC(c2ccc(Cl)c(Cl)c2)C1` (stereo partly drawn) [Compound 240, ((2-(((2S)-1-((3S)-3-(2-(3,4-dichlorophenyl)morpholine-4-carbonyl)-3,4-dihydroisoquinolin-2(1H)-yl)-3,3-dimethyl-1-oxobutan-2-yl)carbamoyl)benzo[b]thiophen-5-yl)difluoromethyl)phosphonic acid], the Ki fell in the range of 100 to 1000 nM.

Take `Cc1cc(C2CN(C(=O)[C@@H]3Cc4ccccc4CN3C(=O)[C@@H](NC(=O)c3cc4cc(C(F)(F)P(=O)(O)O)ccc4s3)C(C)(C)C)CCO2)ccc1F` (stereo partly drawn) [Compound 241, (difluoro(2-(((2S)-1-((3S)-3-(2-(4-fluoro-3-methylphenyl)morpholine-4-carbonyl)-3,4-dihydroisoquinolin-2(1H)-yl)-3,3-dimethyl-1-oxobutan-2-yl)carbamoyl)benzo[b]thiophen-5-yl)methyl)phosphonic acid]: the Ki lay in the range of 1000 to 10000 nM.

As to `CC(C)(C)[C@H](NC(=O)c1cc2cc(C(F)(F)P(=O)(O)O)ccc2s1)C(=O)N1Cc2ccccc2C[C@H]1C(=O)N1CCOC(c2cc(Cl)cc(Cl)c2)C1` (stereo partly drawn) [Compound 242, ((2-(((2S)-1-((3S)-3-(2-(3,5-dichlorophenyl)morpholine-4-carbonyl)-3,4-dihydroisoquinolin-2(1H)-yl)-3,3-dimethyl-1-oxobutan-2-yl)carbamoyl)benzo[b]thiophen-5-yl)difluoromethyl)phosphonic acid], the Ki lay within 100 to 1000 nM.

In the case of `CC(C)(C)[C@H](NC(=O)c1cc2cc(C(F)(F)P(=O)(O)O)ccc2s1)C(=O)N1Cc2ccccc2C[C@H]1C(=O)N1CCOC(c2cc(F)c(Cl)cc2Cl)C1` (stereo partly drawn) [Compound 243, ((2-(((2S)-1-((3S)-3-(2-(2,4-dichloro-5-fluorophenyl)morpholine-4-carbonyl)-3,4-dihydroisoquinolin-2(1H)-yl)-3,3-dimethyl-1-oxobutan-2-yl)carbamoyl)benzo[b]thiophen-5-yl)difluoromethyl)phosphonic acid], the Ki lay within 100 to 1000 nM.

For the compound `CC(C)(C)[C@H](NC(=O)c1cc2cc(C(F)(F)P(=O)(O)O)ccc2s1)C(=O)N1Cc2ccccc2C[C@H]1C(=O)N1CCCCC(c2ccccc2)C1` (stereo partly drawn) [Compound 244, ((2-(((2S)-3,3-dimethyl-1-oxo-1-((3S)-3-(3-phenylazepane-1-carbonyl)-3,4-dihydroisoquinolin-2(1H)-yl)butan-2-yl)carbamoyl)benzo[b]thiophen-5-yl)difluoromethyl)phosphonic acid], the Ki fell in the range of 1000 to 10000 nM.

Take `CC(C)(C)[C@H](NC(=O)c1cc2cc(C(F)(F)P(=O)(O)O)ccc2s1)C(=O)N1Cc2ccccc2C[C@H]1C(=O)N1CCCC(c2cccc(F)c2)C1` (stereo partly drawn) [Compound 245, (difluoro(2-(((2S)-1-((3S)-3-(3-(3-fluorophenyl)piperidine-1-carbonyl)-3,4-dihydroisoquinolin-2(1H)-yl)-3,3-dimethyl-1-oxobutan-2-yl)carbamoyl)benzo[b]thiophen-5-yl)methyl)phosphonic acid]: the Ki is 100 to 1000 nM.

Take `CC(C)(C)[C@H](NC(=O)c1cc2cc(C(F)(F)P(=O)(O)O)ccc2s1)C(=O)N1Cc2ccccc2C[C@H]1C(=O)N1CCCC(c2ccc(Cl)cc2)C1` (stereo partly drawn) [Compound 246, ((2-(((2S)-1-((3S)-3-(3-(4-chlorophenyl)piperidine-1-carbonyl)-3,4-dihydroisoquinolin-2(1H)-yl)-3,3-dimethyl-1-oxobutan-2-yl)carbamoyl)benzo[b]thiophen-5-yl)difluoromethyl)phosphonic acid]: the Ki lay in the range of 100 to 1000 nM.

For the compound `CC(C)(C)[C@H](NC(=O)c1cc2cc(C(F)(F)P(=O)(O)O)ccc2s1)C(=O)N1CCC[C@H]1C(=O)N1CCOC(c2cc(F)cc(F)c2)C1` (stereo partly drawn) [Compound 265, ((2-(((2S)-1-((2S)-2-(2-(3,5-difluorophenyl)morpholine-4-carbonyl)pyrrolidin-1-yl)-3,3-dimethyl-1-oxobutan-2-yl)carbamoyl)benzo[b]thiophen-5-yl)difluoromethyl)phosphonic acid], the Ki fell in the range of 100 to 1000 nM.

Regarding `CC(C)(C)[C@H](NC(=O)c1cc2cc(C(F)(F)P(=O)(O)O)ccc2s1)C(=O)N1CCC[C@H]1C(=O)N1CC(C(=O)O)CC(c2ccccc2)C1` (stereo partly drawn) [Compound 266, 1-(((S)-2-(5-(difluoro(phosphono)methyl)benzo [b]thiophene-2-carboxamido)-3,3-dimethylbutanoyl)-L-prolyl)-5-phenylpiperidine-3-carboxylic acid], the Ki was 1000 to 10000 nM.

In the case of `O=C(N[C@H](C(=O)N1CCC[C@H]1C(=O)N1CCO[C@H](c2ccccc2)C1)C1CCNCC1)c1cc2cc(C(F)(F)P(=O)(O)O)ccc2s1` [Compound 269, (difluoro(2-(((S)-2-oxo-2-((S)-2-((R)-2-phenylmorpholine-4-carbonyl)pyrrolidin-1-yl)-1-(piperidin-4-yl)ethyl)carbamoyl)benzo[b]thiophen-5-yl)methyl)phosphonic acid], the Ki was in the range of 100 to 1000 nM.

Regarding `O=C(N[C@@H](Cc1ccncc1)C(=O)N1CCC[C@H]1C(=O)N1CCO[C@H](c2ccccc2)C1)c1cc2cc(C(F)(F)P(=O)(O)O)ccc2s1` [Compound 270, (difluoro(2-(((S)-1-oxo-1-((S)-2-((R)-2-phenylmorpholine-4-carbonyl)pyrrolidin-1-yl)-3-(pyridin-4-yl)propan-2-yl)carbamoyl)benzo[b]thiophen-5-yl)methyl)phosphonic acid], the Ki fell in the range of 100 to 1000 nM.

Take `O=C(N[C@@H](Cc1cccnc1)C(=O)N1CCC[C@H]1C(=O)N1CCO[C@H](c2ccccc2)C1)c1cc2cc(C(F)(F)P(=O)(O)O)ccc2s1` [Compound 271, (difluoro(2-(((S)-1-oxo-1-((S)-2-((R)-2-phenylmorpholine-4-carbonyl)pyrrolidin-1-yl)-3-(pyridin-3-yl)propan-2-yl)carbamoyl)benzo[b]thiophen-5-yl)methyl)phosphonic acid]: the Ki was in the range of 100 to 1000 nM.

In the case of `CCCC[C@H](NC(=O)c1cc2cc(C(F)(F)P(=O)(O)O)ccc2s1)C(=O)N1CCC[C@H]1C(=O)N1CCO[C@H](c2ccccc2)C1` [Compound 272, (difluoro(2-(((S)-1-oxo-1-((S)-2-((R)-2-phenylmorpholine-4-carbonyl)pyrrolidin-1-yl)hexan-2-yl)carbamoyl)benzo[b]thiophen-5-yl)methyl)phosphonic acid], the Ki was 100 to 1000 nM.
